According to patent US20070244190A1, “Neobritannilactone B and acetyl neobritannilactone B” (priority 2006, published 2007):
Where two headings read alike, the source gives them in different places.

Assays:
COLO 205 cells [1] = test: Apoptosis (sub-G1) by flow cytometry; assay type: cell-based, human; details: 24 h, mean ± SE
Experimental: (§1) Cell Culture and Chemicals. The COLO 205 and HT 29 cell lines were isolated from human colon adenocarcinoma (ATCC CCL-222 and HTB-38); human promyelocytic leukemia (HL-60) cells were obtained from American Type Culture Collection (Rockville, Md.). The human AGS gastric carcinoma cell lines (CCRC 60102) were obtained from the Food Industry Research and Development Institute (Hsinchu, Taiwan). Cell lines were grown at 37° C. in 5% CO2 dioxide atmosphere in RPMI for COLO 205, HT-29, and HL-60 cells and DMEM/F12 for AGS cells, all supplemented with 10% heat-inactivated fetal bovine serum (GIBCO BRL, Grand Island, N.Y.) (100 units/mL of penicillin, 100 μg/mL of streptomycin), and 2 mM L-glutamine (GIBCO BRL). Selected compounds were dissolved in dimethyl sulfoxide (DMSO). Propidium iodide was obtained from Sigma Chemical Co. (St. Louis, Mo.).
(§2) Flow Cytometry. Human cancer cells (2×10^5) were cultured in 60-mm Petri dishes and incubated for 24 h. The apoptotic cells (sub-G1) in the selected compounds and treated cells were measured by flow cytometry analysis. Then cells were harvested, washed with PBS, resuspended in 200 μL of PBS, and fixed in 800 μL of iced 100% ethanol at −20° C. After being left to stand overnight, the cell pellets were collected by centrifugation, resuspended in 1 mL of hypotonic buffer (0.5% Triton X-100 in PBS and 0.5 μg/mL RNase), and incubated at 37° C. for 30 min. Then 1 mL of propidium iodide solution (50 μg/mL) was added and the mixture was allowed to stand on ice for 30 min. Fluorescence emitted from the propidium iodide-DNA complex was quantitated after excitation of the fluorescent dye by FACScan cytometry (Becton Dickinson, San Jose, Calif.).
(§3) The compounds isolated from Inula were tested for their effects on the apoptotic ratio in human cancer cells.

HT-29 cells [2] = test: Apoptosis (sub-G1) by flow cytometry; assay type: cell-based, human; details: 24 h, mean ± SE
Experimental: as §1, §2, §3

HL-60 cells [3] = test: Apoptosis (sub-G1) by flow cytometry; assay type: cell-based, human; details: 24 h, mean ± SE
Experimental: as §1, §2, §3

AGS cells [4] = test: Apoptosis (sub-G1) by flow cytometry; assay type: cell-based, human; details: 24 h, mean ± SE
Experimental: as §1, §2, §3

COLO 205 cells [5] = test: Cell viability, trypan blue exclusion, 24 h; assay type: cell-based; details: COLO 205, 24 h, mean ± SE, n=3, read-out: IC50, growth of human cancer cells
Experimental: as §1
(§4) Determination of Cell Viability. Human cancer cells were treated either with DMSO (0.01%) or the selected compounds (5-100 μM). Cell viability was determined at 24 h based on trypan blue exclusion assay. The viability percentage was calculated based on the percentage of unstained cells. Suspensions of cells were diluted 1:1 with 0.5% trypan blue solution. Stained and unstained cells were counted in a hemocytometer.

HT-29 cells [6] = test: Cell viability, trypan blue exclusion, 24 h; assay type: cell-based; details: HT-29, 24 h, mean ± SE, n=3, read-out: IC50, growth of human cancer cells
Experimental: as §1, §4

HL-60 cells [7] = test: Cell viability, trypan blue exclusion, 24 h; assay type: cell-based; details: HL-60, 24 h, mean ± SE, n=3, read-out: IC50, growth of human cancer cells
Experimental: as §1, §4

AGS cells [8] = test: Cell viability, trypan blue exclusion, 24 h; assay type: cell-based; details: mean ± SE, n=3, read-out: IC50, growth of human cancer cells
Experimental: as §1, §4

| SMILES | apoptotic ratio (COLO 205 cells [1]; COLO 205, 5 μM) | apoptotic ratio (COLO 205 cells [1]; COLO 205, 10 μM) | apoptotic ratio (COLO 205 cells [1]; COLO 205, 25 μM) | apoptotic ratio (COLO 205 cells [1]; COLO 205, 50 μM) | apoptotic ratio (COLO 205 cells [1]; COLO 205, 100 μM) | apoptotic ratio (HT-29 cells [2]; HT-29, 5 μM) | apoptotic ratio (HT-29 cells [2]; HT-29, 10 μM) | apoptotic ratio (HT-29 cells [2]; HT-29, 25 μM) | apoptotic ratio (HT-29 cells [2]; HT-29, 50 μM) | apoptotic ratio (HT-29 cells [2]; HT-29, 100 μM) | apoptotic ratio (HL-60 cells [3]; HL-60, 5 μM) | apoptotic ratio (HL-60 cells [3]; HL-60, 10 μM) | apoptotic ratio (HL-60 cells [3]; HL-60, 25 μM) | apoptotic ratio (HL-60 cells [3]; HL-60, 50 μM) | apoptotic ratio (HL-60 cells [3]; HL-60, 100 μM) | apoptotic ratio (AGS cells [4]; 5 μM) | apoptotic ratio (AGS cells [4]; 10 μM) | apoptotic ratio (AGS cells [4]; 25 μM) | apoptotic ratio (AGS cells [4]; 50 μM) | apoptotic ratio (AGS cells [4]; 100 μM) | other results |
| --- | --- | --- | --- | --- | --- | --- | --- | --- | --- | --- | --- | --- | --- | --- | --- | --- | --- | --- | --- | --- | --- |
| C=C1C(=O)OC2CC(C)=C(C(C)CCCO)C(OC(=O)C(C)CC)C12 (stereo not drawn) [Compound 1, 6β-O-(2-methylbutyryl)-britannilactone] | 5.33 ± 0.78% | 5.86 ± 0.32% | 15.20 ± 1.02% | 27.21 ± 5.51% | 36.24 ± 0.76% | 4.24 ± 0.40% | 3.68 ± 0.47% | 3.93 ± 0.16% | 5.16 ± 0.93% | 6.40 ± 0.28% | 6.41 ± 0.79% | 5.36 ± 0.61% | 10.53 ± 3.34% | 28.60 ± 2.67% | 27.05 ± 0.54% | 10.89 ± 1.69% | 11.38 ± 1.12% | 17.76 ± 0.76% | 28.48 ± 1.20% | 27.10 ± 0.54% | IC50 (COLO 205 cells [5]): 58.7 ± 1.32 µM; IC50 (HT-29 cells [6]): 48.1 ± 2.26 µM; IC50 (HL-60 cells [7]): 47.1 ± 1.55 µM; IC50 (AGS cells [8]): 31.3 ± 1.8 µM |
| CC(=O)OCCC[C@H](C)C1=C[C@@H]2[C@H](C)C(=O)O[C@@H]2C[C@@]1(C)O [Compound 2, neobritannilactone A] | 4.08 ± 0.21% | 6.51 ± 2.28% | 4.28 ± .93% | 5.44 ± 0.47% | 25.50 ± 3.46% | 3.94 ± 1.05% | 4.24 ± 0.24% | 5.17 ± 1.70% | 4.09 ± 0.77% | 7.73 ± 3.22% | 6.68 ± 1.51% | 6.31 ± 0.98% | 6.19 ± 0.01% | 6.63 ± 2.21% | 16.31 ± 1.63% | 9.23 ± 0.22% | 9.83 ± 2.27% | 10.57 ± 2.11% | 9.41 ± 2.83% | 9.81 ± 2.30% | IC50 (COLO 205 cells [5]): 97.9 ± 1.16 µM; IC50 (HT-29 cells [6]): > 100 µM; IC50 (HL-60 cells [7]): 85.8 ± 4.97 µM; IC50 (AGS cells [8]): > 100 µM |
| C=C1C(=O)O[C@@H]2CC(C)=C([C@@H](C)CCCO)[C@H](O)[C@H]12 [Compound 5, britannilactone] | 11.90 ± 3.61% | 12.28 ± 5.24% | 12.79 ± 1.84% | 15.54 ± 2.14% | 28.31 ± 1.89% | 5.75 ± 1.77% | 6.16 ± 1.23% | 6.49 ± 1.07% | 6.59 ± 0.54% | 7.55 ± .08% | 7.22 ± 1.54% | 5.64 ± 2.00% | 5.24 ± 0.67% | 8.01 ± 1.34% | 12.83 ± .06% | 7.93 ± 1.71% | 10.37 ± 0.98% | 10.16 ± .28% | 8.97 ± 0.66% | 10.37 ± 0.66% | IC50 (COLO 205 cells [5]; Homo sapiens): > 100 µM; IC50 (HT-29 cells [6]; Homo sapiens): > 100 µM; IC50 (HL-60 cells [7]; Homo sapiens): > 100 µM; IC50 (AGS cells [8]; Homo sapiens): > 100 µM |
| C=C1C(=O)OC2CC(C)=C(C(C)CCCOC(C)=O)C(O)C12 (stereo not drawn) [Compound 6, 1-O-acetylbritannilactone] | 13.44 ± .25% | 11.32 ± .421% | 16.48 ± 3.75% | 16.59 ± 0.71% | 35.79 ± 1.36% | 5.36 ± 1.80% | 6.81 ± 2.14% | 11.68 ± 3.02% | 9.26 ± 1.80% | 14.87 ± .90% | 4.05 ± 0.31% | 7.26 ± 2.15% | 4.37 ± 0.57% | 5.69 ± 0.60% | 22.19 ± 4.14% | 15.37 ± 6.22% | 17.28 ± 2.29% | 14.66 ± 1.38% | 14.84 ± .58% | 18.85 ± .68% | IC50 (COLO 205 cells [5]): > 100 µM; IC50 (HT-29 cells [6]): 96 ± 12.5 µM; IC50 (HL-60 cells [7]): > 100 µM; IC50 (AGS cells [8]): > 100 µM |
| C=C1C(=O)OC2CC(C)=C(C(C)CCCOC(C)=O)C(OC(C)=O)C12 (stereo not drawn) [Compound 7, 1,6-O,O-diacetylbritannilactone] | 6.94 ± .33% | 8.69 ± 1.65% | 26.95 ± 0.30% | 15.44 ± .08% | 17.82 ± 2.26% | 11.19 ± 3.98% | 11.15 ± 2.84% | 11.50 ± .92% | 13.08 ± 0.63% | 20.88 ± .09% | 6.14 ± .20% | 8.67 ± 2.06% | 21.13 ± 0.37% | 27.02 ± 2.69% | 22.24 ± 1.06% | 7.49 ± .88% | 5.79 ± 0.64% | 11.29 ± 2.16% | 10.79 ± 2.79% | 8.12 ± .26% | IC50 (COLO 205 cells [5]): 56.7 ± 3.66 µM; IC50 (HT-29 cells [6]): 76.6 ± 5.5 µM; IC50 (HL-60 cells [7]): 35.3 ± 0.44 µM; IC50 (AGS cells [8]): 66.4 ± 6.29 µM |
